Assay results published in paper PMC11079024, “Identification of a family of species-selective complex I inhibitors as potential anthelmintics” (Nature Communications, 2024).
Values joined by “and” are separate entries in the source; they are usually repeats but may differ in a detail not shown here. Equal values may be shown once. Read-outs that look alike come from different tables or passages of the source.

Key:
adult H. polygyrus = experiment: microbe, parasite or virus in culture; assay type: cell-based, Heligmosomoides polygyrus
Method: To investigate the impact of the eleven benzimidazole derivatives under anaerobic conditions, an anaerobic chamber with an integrated incubator (Coy Laboratory Products, USA) was used. The same procedure was followed as described for the aerobic drug screening in adult H. polygyrus, but the incubation took place within the anaerobic chamber (37 °C, 85% N2, 10% CO2, 5% H2). Benzimidazole derivatives were tested at a concentration of 10 µM. For scoring, the plates had to be removed from the anaerobic chamber. The whole experiment was performed two times i.e., two independent biological replicates.
The activities of eleven benzimidazole derivatives were tested against adult H. polygyrus viability in vitro under aerobic (+, white boxplots) and anaerobic (–, coloured boxplots) conditions (see Methods). After 24-hour chemical treatment, worm viability was manually scored by an examiner using a scale from 0 (dead) to 3 (motile); DMSO was used as a negative control in both aerobic and anaerobic conditions; levamisole was used as a positive control in anaerobic conditions. The percentage of affected worms (i.e., worms with a score equal to or lower than 1.5) in each biological replicate is shown; data are from two biological replicates. Within each boxplot, black horizontal lines denote group medians, boxes span from the 25th to the 75th percentile of each group’s distribution, and whiskers extend to the maximum and minimum values. […]

H. polygyrus = settings: cited from earlier work
C. elegans = C. elegans chemical screens of RIKEN NPD libraries at 50 μM (hit identification in KCN survival and development/viability assays); assay type: cell-based, Caenorhabditis elegans; settings: screened at 50 μM in triplicate; hit = modified z-score < −3; KCN = KCN survival assay, Dev. & Viability = development/viability assay
L1 wild-type C. elegans [1] = experiment: 15-hour motility assay with drug alone (no KCN); assay type: cell-based, Caenorhabditis elegans; settings: without KCN, 15-hour; for Value relative to DMSO control, drug alone (without KCN), Mean: mean of replicates; for Value relative to DMSO control, drug alone (without KCN): single replicates
L1 wild-type C. elegans [2] = settings: for KCN survival assay value relative to DMSO control, Mean / KCN survival assay value relative to DMSO control: drug + KCN, 15-hour; for KCN survival assay value relative to DMSO control, Mean: mean of replicates; for KCN survival assay value relative to DMSO control: single replicates
L1 wild-type C. elegans [3] = experiment: whole plant or invertebrate; settings: Caenorhabditis elegans, 15 h
HEK293 cells = settings: human, 2 days, 6.3 µM
in vitro = settings: human
[4] = read-out: C. elegans KCN Survival Assay LC50

c1ccc([C@H]2CN3CCSC3=N2)cc1 [levamisole, reference compound]
# of Worms Affected (adult H. polygyrus): 12
killing at 10 µM (adult H. polygyrus; Heligmosomoides polygyrus, 24 h, read-out: Percent Worms Affected): 100%
reduction in H. polygyrus worm burden (H. polygyrus; mouse, in vivo, 1.25 mg/kg): 62%

CO/N=C1\C[C@]2(C[C@@H]3C[C@@H](C/C=C(\C)C[C@@H](C)/C=C/C=C4\CO[C@@H]5[C@H](O)C(C)=C[C@@H](C(=O)O3)[C@]45O)O2)O[C@H](/C(C)=C/C(C)C)[C@H]1C [moxidectin]
reduction in H. polygyrus worm burden (H. polygyrus; single dose 1 mg/kg, mice): 99%

O=C(Nc1ccc([N+](=O)[O-])cc1Cl)c1cc(Cl)ccc1O [Niclosamide]
Hit Type (C. elegans): KCN
Value relative to DMSO control, drug alone (without KCN), Mean (L1 wild-type C. elegans [1]; 0.025 µM): 1.071
Value relative to DMSO control, drug alone (without KCN) (L1 wild-type C. elegans [1]; 0.025 µM): 0.995 and 1.216 and 1.349 and 0.779 and 1.019
Value relative to DMSO control, drug alone (without KCN), Mean (L1 wild-type C. elegans [1]; 0.05 µM): 1.075
Value relative to DMSO control, drug alone (without KCN) (L1 wild-type C. elegans [1]; 0.05 µM): 1.004 and 1.000 and 1.245 and 1.142 and 0.983
Value relative to DMSO control, drug alone (without KCN), Mean (L1 wild-type C. elegans [1]; 0.1 µM): 0.944
Value relative to DMSO control, drug alone (without KCN) (L1 wild-type C. elegans [1]; 0.1 µM): 0.881 and 0.705 and 1.000 and 1.091 and 1.040
Value relative to DMSO control, drug alone (without KCN), Mean (L1 wild-type C. elegans [1]; 0.2 µM): 0.857
Value relative to DMSO control, drug alone (without KCN) (L1 wild-type C. elegans [1]; 0.2 µM): 0.621 and 0.780 and 0.965 and 0.960 and 0.957
Value relative to DMSO control, drug alone (without KCN), Mean (L1 wild-type C. elegans [1]; 0.4 µM): 0.828
Value relative to DMSO control, drug alone (without KCN) (L1 wild-type C. elegans [1]; 0.4 µM): 0.811 and 0.792 and 0.740 and 0.844 and 0.957
Value relative to DMSO control, drug alone (without KCN), Mean (L1 wild-type C. elegans [1]; 0.8 µM): 0.938
Value relative to DMSO control, drug alone (without KCN) (L1 wild-type C. elegans [1]; 0.8 µM): 0.966 and 0.718 and 0.993 and 1.008 and 1.003
Value relative to DMSO control, drug alone (without KCN), Mean (L1 wild-type C. elegans [1]; 3.1 µM): 0.892
Value relative to DMSO control, drug alone (without KCN) (L1 wild-type C. elegans [1]; 3.1 µM): 0.775 and 0.855 and 0.898 and 1.068 and 0.863
Value relative to DMSO control, drug alone (without KCN), Mean (L1 wild-type C. elegans [1]; 6.3 µM): 0.921
Value relative to DMSO control, drug alone (without KCN) (L1 wild-type C. elegans [1]; 6.3 µM): 0.820 and 1.003 and 0.834 and 0.940 and 1.007
Value relative to DMSO control, drug alone (without KCN), Mean (L1 wild-type C. elegans [1]; 12.5 µM): 1.018
Value relative to DMSO control, drug alone (without KCN) (L1 wild-type C. elegans [1]; 12.5 µM): 0.937 and 0.884 and 0.971 and 1.234 and 1.065
Value relative to DMSO control, drug alone (without KCN), Mean (L1 wild-type C. elegans [1]; 25 µM): 0.884
Value relative to DMSO control, drug alone (without KCN) (L1 wild-type C. elegans [1]; 25 µM): 0.851 and 0.847 and 1.014 and 1.053 and 0.655
C. elegans L1 relative motility, 3-hour post 200 µM KCN dilution (L1 wild-type C. elegans [2]; dose 0.05 µM, Mean of replicates): 1.030
C. elegans L1 relative motility, 3-hour post 200 µM KCN dilution (L1 wild-type C. elegans [2]; dose 0.05 µM, individual replicate (Rep)): 1.077 and 0.962 and 1.145
C. elegans L1 relative motility, 3-hour post 200 µM KCN dilution (L1 wild-type C. elegans [2]; dose 0.1 µM, Mean of replicates): 0.412
C. elegans L1 relative motility, 3-hour post 200 µM KCN dilution (L1 wild-type C. elegans [2]; dose 0.1 µM, individual replicate (Rep)): 0.940 and 1.178 and 0.971
C. elegans L1 relative motility, 3-hour post 200 µM KCN dilution (L1 wild-type C. elegans [2]; dose 0.2 µM, individual replicate (Rep)): 0.475 and 0.408 and 0.354
C. elegans L1 relative motility, 3-hour post 200 µM KCN dilution (L1 wild-type C. elegans [2]; dose 0.8 µM, Mean of replicates): 0.011
C. elegans L1 relative motility, 3-hour post 200 µM KCN dilution (L1 wild-type C. elegans [2]; dose 3.1 µM, Mean of replicates): 0.006
C. elegans L1 relative motility, 3-hour post 200 µM KCN dilution (L1 wild-type C. elegans [2]; dose 3.1 µM, individual replicate (Rep)): 0.000
C. elegans L1 relative motility, 3-hour post 200 µM KCN dilution (L1 wild-type C. elegans [2]; dose 6.3 µM, Mean of replicates): 0.039
C. elegans L1 relative motility, 3-hour post 200 µM KCN dilution (L1 wild-type C. elegans [2]; dose 12.5 µM, Mean of replicates): 0.0056
C. elegans L1 relative motility, 3-hour post 200 µM KCN dilution (L1 wild-type C. elegans [2]; dose 25 µM, Mean of replicates): 0.020
C. elegans L1 relative motility, 3-hour post 200 µM KCN dilution (L1 wild-type C. elegans [2]; dose […], Mean of replicates): 0.000
KCN survival assay value relative to DMSO control, Mean (L1 wild-type C. elegans [2]; 0.025 µM): 1.061
KCN survival assay value relative to DMSO control (L1 wild-type C. elegans [2]; 0.025 µM): 0.962 and 1.145 and 1.077
KCN survival assay value relative to DMSO control, Mean (L1 wild-type C. elegans [2]; 0.05 µM): 1.030
KCN survival assay value relative to DMSO control (L1 wild-type C. elegans [2]; 0.05 µM): 1.178 and 0.971 and 0.940
KCN survival assay value relative to DMSO control, Mean (L1 wild-type C. elegans [2]; 0.1 µM): 0.412
KCN survival assay value relative to DMSO control (L1 wild-type C. elegans [2]; 0.1 µM): 0.408 and 0.354 and 0.475
KCN survival assay value relative to DMSO control, Mean (L1 wild-type C. elegans [2]; 0.2 µM): 0.114
KCN survival assay value relative to DMSO control, Mean (L1 wild-type C. elegans [2]; 0.4 µM): 0.0075
KCN survival assay value relative to DMSO control, Mean (L1 wild-type C. elegans [2]; 0.8 µM): 0.011
KCN survival assay value relative to DMSO control, Mean (L1 wild-type C. elegans [2]; 3.1 µM): 0.006
KCN survival assay value relative to DMSO control, Mean (L1 wild-type C. elegans [2]; 6.3 µM): 0.039
KCN survival assay value relative to DMSO control, Mean (L1 wild-type C. elegans [2]; 12.5 µM): 0.0056
KCN survival assay value relative to DMSO control, Mean (L1 wild-type C. elegans [2]; 25 µM): 0.020
LC50 (L1 wild-type C. elegans [3]; [4]): 0.095 µM
LC50 (L1 wild-type C. elegans [3]; read-out: C. elegans KCN survival assay LC50): 0.0948 µM

Fc1ccc(C(c2ccc(F)cc2)N2CCN(C/C=C/c3ccccc3)CC2)cc1 [Flunarizine]
Hit Type (C. elegans): KCN
HEK293 viability (HEK293 cells): 1.000
CC50 at 2 days (in vitro; HEK293 Cell Viability Assay LC50): 30.2 µM
viability (in vitro; HEK293 viability): 92.6%
viability at 2 days, 0.4 µM (in vitro; HEK293 viability): 88.1%
viability at 2 days, 0.8 µM (in vitro; HEK293 viability): 81.5%
viability at 2 days, 6.3 µM (in vitro; HEK293 viability): 100%
viability at 2 days, 12.5 µM (in vitro; HEK293 viability): 99.4%
viability at 2 days, 50 µM (in vitro; HEK293 viability): 17.1%
LC50 (L1 wild-type C. elegans [3]; [4]): 22 µM
